# Test results taken from patent publication US3984543A, “Therapeutic methods employing cyclic aminophosphonic acids” (Henkel & Cie G.m.b.H., priority 1973, dated 1976).
# Legend:
# [1] = Sequestration of calcium (modified Hampshire test); assay type: physicochemical; details: pH 11; for Consumption of Sequestering Agent Solution: 1 gm sequestering agent in 50 ml H2O, until CaCO3 precipitate redissolved
# Procedure: In the investigation of the sequestration of calcium, a modified Hampshire test was employed and worked as follows:
# 1 gm of the sequestering agent was dissolved in 50 ml of H2 O, adjusted with NaOH to a pH of 11. 50 ml of a Ca^+^+ solution (1470 mg of CaCl2.2H2 0/1) were mixed with 100 ml of a sodium carbonate solution (7.15 gm NaCO3.10H2 O/l.). Then the solution of the sequestering agent was added in drops from a burette until the calcium carbonate precipitate was redissolved. The values formed have been reported in Table I. For the sake of simplicity, only the value for n and the various substituents for R according to Formula I are indicated in the left column of the Table.
# [2] = Threshold effect: prevention of precipitation of poorly soluble calcium compounds by substoichiometric amounts; assay type: physicochemical; details: 30 minutes
# Procedure: The prevention of the precipitation of poorly soluble calcium compounds by substoichiometric amounts of a sequestering agent was determined at 60° and 95° C as follows:
# 25 ml of 80° dH (German hardness) water (corresponding to 800 mg CaO/l.) were mixed with a 10 ml of a solution of the sequestering agent (concentration: 300 mg/l.). After dilution with distilled water to 70 ml, 25 ml of a sodium carbonate solution containing 4 gm/l. were added and the solution was brought to 100 ml. After heating for 30 minutes at the indicated temperature, any precipitate formed was separated. The sequestering agent was removed from a measured amount of the clear filtrate by means of an anion exchange resin. Then the content of the dissolved calcium in this sample was determined by complexometry (according to Scharzenbach).
# [3] = Acute toxicity (LD50) in mice; details: mouse, in vivo
# Description: The new phosphonic acids are characterized by a very low acute toxicity. The following LD50 values of Table IV were found in mice. For the explanation of the data in the left column of Table IV, see Example 8.
# [4] = Calcium phosphate dissolution in vitro (CaHPO4 test); assay type: physicochemical; details: for Consumption Sequestering Agent Solution: 10 mg/ml solution, pH 7.4, clear solution after 1 hour; for mg CaHPO4 dissolved / gm Sequestering Agent: pH 7.4, 1 hour
# Procedure: Essential tests for the effectiveness of the compounds in physiological systems are in vitro tests for the dissolving of freshly precipitated CaHPO4, as well as preventing the precipitation of NH4 MgPO4 at a pH of 7.4. The "CaHPO4 test" was carried out as follows.
# By combining 25 ml of a phosphate solution (1.38 gm of NaH2 PO4.H2 O/liter, standardized to a pH of 7.4) and 25 ml of a calcium solution (1.45 gm of CaCl2.2H2 O/liter, standardized to a pH of 7.4), a precipitate of CaHPO4 was produced. Thereafter, so much of a solution of the sequestering agent (at a concentration of 10 mg/ml) was added from a burette that a clear solution was obtained after standing for 1 hour.
# [5] = Inhibition of precipitation of NH4 MgPO4 in vitro; assay type: physicochemical; details: pH 7.4, 72 hours
# Procedure: Since the precipitation of NH4 MgPO4 is occasionally the cause of the formation of urinary calculus, the inhibition of the precipitation of NH4 MgPO4 was also tested in aqueous solutions at pH 7.4. The test was carried out as follows.
# A fixed amount of the phosphonic acid was weighed into a beaker and dissolved with 25 ml of a phosphate solution (13.799 gm of NaH2 PO4.H2 O/liter) as well as with 40 ml of distilled water, and standardized with NaOH to a pH of 7.4. After adding 25 ml of a Mg^+^+ and NH4 ^+ solution (20.333 gm of MgC12.6H2 O and 5.349 gm of NH4 Cl/liter, standardized to a pH of 7.4), the solution was brought up with distilled H2 O to 100 ml. Then the sample was covered and evaluated after 72 hours for amount and appearance of the precipitate. The explanation of the data in the left column is to be found in Example 8.
# [6] = Apatite crystallization delay test in vitro; assay type: physicochemical; details: 2 mg, pH 7.4, 35°C
# Procedure: Supersaturated solutions of Ca^+^+ and HPO4 ^-^- ions are relatively stable, but crystallize after the addition of an apatite nuclei according to the reaction
# with the release of protons. The reaction can, therefore, be readily observed by titration with a base at a constant pH.
# 400 ml of 0.0008 molar KH2 PO4 solution were mixed with 45 ml of a 0.012 molar CaCl2 solution, and the clear solution was standardized with KOH to a pH of 7.4, after being brought to a temperature of 35°C. […] The crystallization set in immediately and was followed by "pH-Stat" titration with 0.05 N KOH.
# If a small amount (2 mg) of one of the cyclic aminophosphonic acids of the invention was added to the solution before the apatite was added, the crystallization was greatly delayed.
# For simplicity's sake, only the value for n and the various substituents for R according to Formula I in Example 8 are indicated in the left column of the Table.
Structure (SMILES),Consumption of Sequestering Agent Solution [1] [mL],mg CaCO3 Sequestered per gm of Compound [1],CaO in Solution ([2]; 60 °C) [%],CaO precipitated ([2]; 60 °C) [%],CaO in Solution ([2]; 95 °C) [%],CaO precipitated ([2]; 95 °C) [%],LD50 [3] [mg/kg],Consumption Sequestering Agent Solution [4] [mL],mg CaHPO4 dissolved / gm Sequestering Agent [4],Delay of crystallization in % after 4 Hours [6] [%],Delay of crystallization in % after 8 Hours [6] [%],other results
"CCNC1(P(=O)(O)O)CCC(=O)N(CC)P1(=O)O (stereo not shown) [n=2, R=C2 H5, 1-Ethyl-2-hydroxy-2-oxo-3-ethylamino-3-phosphonyl-6-oxo-1-aza-2-phospha-cyclohexane]",2.25,1110 mg CaCO3 per gm of Compound,–,–,–,–,–,–,–,–,–,–
"NC1(P(=O)(O)O)CCCC(=O)NP1(=O)O (stereo not shown) [n=3, R=H, 2-Hydroxy-2-oxo-3-amino-3-phosphonyl-7-oxo-1-aza-2-phospha-cycloheptane]",3.1,810 mg CaCO3 per gm of Compound,99.6,0.4,99.5,0.5,10000,2.5,1350 mg CaHPO4 / gm Sequestering Ag,96,96,Precipitation after 72 hours: NH4 MgPO4 crystals ([5]; 68.5 mg): Fewer NH4 MgPO4 crystals; Precipitation after 72 hours: cloudiness ([5]; 68.5 mg): great cloudiness
"CNC1(P(=O)(O)O)CCC(=O)N(C)P1(=O)O (stereo not shown) [n=2, R=CH3, 1-Methyl-2-hydroxy-2-oxo-3-methylamino-3-phosphonyl-6-oxo-1-aza-2-phospha-cyclohexane]",3.0,840 mg CaCO3 per gm of Compound,–,–,–,–,–,4.0,850 mg CaHPO4 / gm Sequestering Ag,84,76,Precipitation after 72 hours: NH4 MgPO4 crystals ([5]; 145 mg): Very few NH4 MgPO4 crystals; Precipitation after 72 hours: cloudiness ([5]; 145 mg): no cloudiness; Precipitation after 72 hours: NH4 MgPO4 crystals ([5]; 217.5 mg): No NH4 MgPO4 crystals; Precipitation after 72 hours: cloudiness ([5]; 217.5 mg): no
"NC1(P(=O)(O)O)CC(=O)NP1(=O)O (stereo not shown) [n=1, R=H, 2-Hydroxy-2-oxo-3-amino-3-phosphonyl-5-oxo-1-aza-2-phospha-cyclopentane]",2.6,1040 mg CaCO3 per gm of Compound,76.1,23.9,87.7,12.3,–,8.0,420 mg CaHPO4 / gm Sequestering Ag,–,–,–
"CNC1(P(=O)(O)O)CCCC(=O)N(C)P1(=O)O (stereo not shown) [n=3, R=CH3, 1-Methyl-2-hydroxy-2-oxo-3-methylamino-3-phosphonyl-7-oxo-1-aza-2-phospha-cycloheptane]",3.8,660 mg CaCO3 per gm of Compound,–,–,–,–,–,5.0,680 mg CaHPO4 / gm Sequestering Ag,–,–,Precipitation after 72 hours: NH4 MgPO4 crystals ([5]; 72 mg): Few NH4 MgPO4 crystals; Precipitation after 72 hours: NH4 MgPO4 crystals ([5]; 144 mg): No NH4 MgPO4 crystals
"NC1(P(=O)(O)O)CCC(=O)NP1(=O)O (stereo not shown) [n=2, R=H, 2-Hydroxy-2-oxo-3-amino-3-phosphonyl-6-oxo-1-aza-2-phospha-cyclohexane]",2.6,1040 mg CaCO3 per gm of Compound,99.6,0.4,99.5,0.5,3200,6.0,570 mg CaHPO4 / gm Sequestering Ag,–,–,Precipitation after 72 hours: NH4 MgPO4 crystals ([5]; 61 mg): Few NH4 MgPO4 crystals; Precipitation after 72 hours: cloudiness ([5]; 61 mg): some; Precipitation after 72 hours: NH4 MgPO4 crystals ([5]; 122 mg): No NH4 MgPO4 crystals; Precipitation after 72 hours: cloudiness ([5]; 122 mg): great
